pKd: −log10 of the molar value. Read-outs that look alike come from different tables or passages of the source. *1 amine or outer side, *2 acyl side, *3 side chain or, on linkers, in order; H or OH if unused. Where a SMILES comes first, the peptide text is derived from it. Bridges are numbered along the chain shown (N, C = ends). [ ]: non-standard residue; d: D form. The star is where a group is joined. hPhe(3,5-F2-4-CF3) = N[C@@H](CCc1cc(F)c(C(F)(F)F)c(F)c1)C(=O)O; hPhe(3-Cl-4-CF3) = N[C@@H](CCc1ccc(C(F)(F)F)c(Cl)c1)C(=O)O; X32 = COCCN([C@@H](Cc1ccc(C(F)(F)F)cc1)C(=O)[*:2])[*:1]; NPrPhe(4-CF3) = CCCN[C@@H](Cc1ccc(C(F)(F)F)cc1)C(=O)O; NMeAbu(4,4,4-F3) = CN[C@@H](CC(F)(F)F)C(=O)O; NMeGly(cPent) = CN[C@H](C(=O)O)C1CCCC1; Pro(4,4-F2) = O=C(O)[C@@H]1CC(F)(F)CN1; Hyp = O=C(O)[C@@H]1C[C@@H](O)CN1; NMeD = CN[C@@H](CC(=O)O)C(=O)O; NMeL = CN[C@@H](CC(C)C)C(=O)O; Morpholide = C1CN(*)CCO1; NMeA = CN[C@@H](C)C(=O)O; Ac5c = NC1(C(=O)O)CCCC1; Aze = O=C(O)[C@@H]1CCN1; Ac4c = NC1(C(=O)O)CCC1; Sar = CNCC(=O)O
Tests used:
[1] = molecular target: GDP-bound KRAS wild-type protein (Homo sapiens, UniProt P01116); assay: Binding to KRAS by surface plasmon resonance (SPR), Single Cycle Kinetics; details: GDP-bound KRAS wild-type protein, read-out: KRAS KD
Chain of GDP-bound KRAS wild-type protein (P01116 whole entry): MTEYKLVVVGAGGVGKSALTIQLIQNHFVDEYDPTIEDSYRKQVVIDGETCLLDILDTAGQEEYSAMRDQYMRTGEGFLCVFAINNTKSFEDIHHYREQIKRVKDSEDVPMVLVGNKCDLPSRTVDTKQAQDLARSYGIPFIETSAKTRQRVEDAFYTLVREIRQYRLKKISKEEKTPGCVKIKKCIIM

[2] = molecular target: GDP-bound NRAS wild-type protein (Homo sapiens, UniProt P01111); assay: Binding to NRAS by surface plasmon resonance (SPR), Single Cycle Kinetics; details: SPR, GDP-bound NRAS wild-type protein vs GDP-bound KRAS wild-type protein
Chain of GDP-bound NRAS wild-type protein (P01111 whole entry): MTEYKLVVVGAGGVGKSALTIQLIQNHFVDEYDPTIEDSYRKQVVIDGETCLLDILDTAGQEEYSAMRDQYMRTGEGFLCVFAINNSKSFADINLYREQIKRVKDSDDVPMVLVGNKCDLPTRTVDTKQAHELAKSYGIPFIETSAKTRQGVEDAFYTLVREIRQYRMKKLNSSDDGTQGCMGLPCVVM

[3] = molecular target: GDP-bound HRAS wild-type protein (Homo sapiens, UniProt P01112); assay: Binding to HRAS by surface plasmon resonance (SPR), Single Cycle Kinetics; details: SPR, GDP-bound HRAS wild-type protein vs GDP-bound KRAS wild-type protein
Chain of GDP-bound HRAS wild-type protein (P01112 whole entry): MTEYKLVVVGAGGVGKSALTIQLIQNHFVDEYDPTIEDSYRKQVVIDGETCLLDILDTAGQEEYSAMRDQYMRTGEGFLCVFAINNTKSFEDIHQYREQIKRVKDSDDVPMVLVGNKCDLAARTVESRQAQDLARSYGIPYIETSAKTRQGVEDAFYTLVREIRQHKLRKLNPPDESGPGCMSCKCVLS

[4] = SPR Single Cycle Kinetics, 1:1 binding model

Compound | pKd [1, 4] | NRAS/KRAS (ratio of KD value for NRAS to KD value for KRAS) [2] | HRAS/KRAS (ratio of KD value for HRAS to KD value for KRAS) [3] | NRAS/KRAS (ratio of KD value with respect to NRAS to KD value with respect to KRAS) [2] | HRAS/KRAS (ratio of KD value with respect to HRAS to KD value with respect to KRAS) [3] | other results
CCCN1C(=O)CN(C)C(=O)CN(C)C(=O)[C@H]([C@@H](C)CC)NC(=O)[C@H](CC(C)C)N(C)C(=O)C[C@@H](C(=O)N2CCOCC2)NC(=O)[C@H](C2CCCC2)N(C)C(=O)C2(CCCC2)NC(=O)[C@@H]2C[C@@H](OCC)CN2C(=O)[C@H](CCc2ccc(C(F)(F)F)c(Cl)c2)NC(=O)CN(C)C(=O)[C@@H]1Cc1ccc(C(F)(F)F)cc1 [PP0323] ([NMeL]I[Sar][Sar][NPrPhe(4-CF3)][Sar][hPhe(3-Cl-4-CF3)][Hyp](Et)[Ac5c][NMeGly(cPent)]D-Morpholide; lactam N-11) | 9.60 | B (a compound having 3 or more and less than 10 is denoted as B) | B (a compound having 3 or more and less than 10 is denoted as B) | – | – | –
CCO[C@@H]1C[C@H]2C(=O)NC3(CCC3)C(=O)N(C)[C@@H](C3CCCC3)C(=O)N(C)[C@H](C(=O)N(C)C)CC(=O)N(C)[C@@H](CC3CCCCC3)C(=O)N[C@@H]([C@@H](C)CC)C(=O)N(C)CC(=O)N(C)[C@H]3C/C=C\CCN(C3=O)[C@@H](Cc3ccc(C(F)(F)F)cc3)C(=O)N(C)CC(=O)N[C@@H](CCc3cc(F)c(C(F)(F)F)c(F)c3)C(=O)N2C1 [PP1125, (2S,8S,12R,14S,20S,23S,27S,30S,36S,38Z)-27-(cyclohexylmethyl)-20-cyclopentyl-8-[2-[3,5-difluoro-4-(trifluoromethyl)phenyl]ethyl]-12-ethoxy-N,N,4,19,22,26,32,35-octamethyl-30-[(1S)-1-methylpropyl]-3,6,9,15,18,21,25,28,31,34,42-undecaoxo-2-[[4-(trifluoromethyl)phenyl]methyl]spiro[1,4,7,10,16,19,22,26,29,32,35-undecazatricyclo[34.5.1.0^10,14]dotetracont-38-ene-17,1′-cyclobutane]-23-carboxamide] | – | A (a compound having 10 or more and less than 20 is denoted as A) | A (a compound having 10 or more and less than 20 is denoted as A) | – | – | pKd ([1]; SPR, Single Cycle Kinetics): 10.15
CCCN1C(=O)[C@@H]2CCN2C(=O)[C@H](C)N(C)C(=O)[C@H]([C@@H](C)CC)NC(=O)[C@H](CC(C)C)N(C)C(=O)C[C@@H](C(=O)N(C)C)NC(=O)[C@H](C2CCCC2)N(C)C(=O)C2(CCC2)NC(=O)[C@@H]2C[C@@H](OCC)CN2C(=O)[C@H](CCc2ccc(C(F)(F)F)c(Cl)c2)NC(=O)CN(C)C(=O)[C@@H]1Cc1ccc(C(F)(F)F)cc1 [PP0384] ([NMeL]I[NMeA][Aze][NPrPhe(4-CF3)][Sar][hPhe(3-Cl-4-CF3)][Hyp](Et)[Ac4c][NMeGly(cPent)]D-NMe2; lactam N-11) | 9.74 | C (A compound having a KD ratio of 0.1 or more and less than 3 is denoted as C) | B (a compound having 3 or more and less than 10 is denoted as B) | – | – | –
CC[C@H](C)[C@@H]1NC(=O)[C@H](CC)N(C)C(=O)C[C@@H](C)N(C)C(=O)[C@H](C2CCCC2)N(C)C(=O)C2(CCCC2)NC(=O)[C@@H]2CCCN2C(=O)[C@H](CCc2cc(F)c(C(F)(F)F)c(F)c2)NC(=O)CN(C)C(=O)[C@H](Cc2ccc(C(F)(F)F)cc2)N2CC/C=C\C[C@@H](C2=O)N(C)C(=O)CN(C)C1=O [PP1101] | – | B (a compound having 3 or more and less than 10 is denoted as B) | B (a compound having 3 or more and less than 10 is denoted as B) | – | – | pKd ([1]; SPR, Single Cycle Kinetics): 9.34
CC[C@H](C)[C@@H]1NC(=O)[C@H](CC(C)C)N(C)C(=O)C[C@@H](C(=O)N2CCOCC2)N(C)C(=O)[C@H](C2CCCC2)N(C)C(=O)C2(CC(F)(F)C2)NC(=O)[C@@H]2CCCN2C(=O)[C@H](CCc2cc(F)c(C(F)(F)F)c(F)c2)NC(=O)CN(C)C(=O)[C@H](Cc2ccc(C(F)(F)F)cc2)N2CCCCC[C@@H](C2=O)N(C)C(=O)CN(C)C1=O [PP0499] | 8.96 | – | – | B (a compound having 3 or more and less than 10 is denoted as B) | B (a compound having 3 or more and less than 10 is denoted as B) | –
CCCN1C(=O)[C@@H]2CCN2C(=O)CN(C)C(=O)[C@H]([C@@H](C)CC)NC(=O)[C@H](CC(C)C)N(C)C(=O)C[C@@H](C(=O)N2CCOCC2)N(C)C(=O)[C@H](CC(F)(F)F)N(C)C(=O)C2(CCCC2)NC(=O)[C@@H]2CCCN2C(=O)[C@H](CCc2cc(F)c(C(F)(F)F)c(F)c2)NC(=O)CN(C)C(=O)[C@@H]1Cc1ccc(C(F)(F)F)cc1 [PP0803] ([NMeL]I[Sar][Aze][NPrPhe(4-CF3)][Sar][hPhe(3,5-F2-4-CF3)]P[Ac5c][NMeAbu(4,4,4-F3)][NMeD]-Morpholide; lactam N-11) | 8.77 | – | – | C (A compound having a KD ratio of 0.1 or more and less than 3 is denoted as C) | B (a compound having 3 or more and less than 10 is denoted as B) | –
CCO[C@@H]1C[C@H]2C(=O)NC3(CCC3)C(=O)N(C)[C@@H](C3CCCC3)C(=O)N(C)C(C(C)C)CC(=O)N(C)[C@@H](CC)C(=O)N[C@@H]([C@@H](C)CC)C(=O)N(C)CC(=O)N(C)[C@H]3C/C=C\CCN(C3=O)[C@@H](Cc3ccc(C(F)(F)F)cc3)C(=O)N(C)CC(=O)N[C@@H](CCc3cc(F)c(C(F)(F)F)c(F)c3)C(=O)N2C1 (stereo partly drawn) [PP1590] | – | – | – | – | – | pKd ([1]; SPR, Single Cycle Kinetics, 1:1 binding model): 9.54; NRAS/KRAS (ratio of KD value for NRAS to KD value for KRAS) ([2]; KD ratio class): A (a compound having 10 or more and less than 20 is denoted as A); HRAS/KRAS (ratio of KD value for HRAS to KD value for KRAS) ([3]; KD ratio class): B (a compound having 3 or more and less than 10 is denoted as B)
CC[C@H](C)[C@@H]1NC(=O)[C@H](CC(C)C)N(C)C(=O)C[C@@H](C(=O)N2CCOCC2)N(C)C(=O)[C@H](C2CCCC2)N(C)C(=O)C2(CCCC2)NC(=O)[C@@H]2CCCN2C(=O)[C@H](CCc2ccc(C(F)(F)F)c(Cl)c2)NC(=O)CN(C)C(=O)[C@H](Cc2ccc(C(F)(F)F)cc2)N(CCOC)C(=O)CN(C)C(=O)CN(C)C1=O [PP0132] ([NMeL]I[Sar][Sar][X32][Sar][hPhe(3-Cl-4-CF3)]P[Ac5c][NMeGly(cPent)][NMeD]-Morpholide; lactam N-11) | 9.70 | C (A compound having a KD ratio of 0.1 or more and less than 3 is denoted as C) | C (A compound having a KD ratio of 0.1 or more and less than 3 is denoted as C) | – | – | –
CCO[C@@H]1C[C@H]2C(=O)NC3(CCC3)C(=O)N(C)[C@@H](C3CCCC3)C(=O)N(C)[C@H](C(=O)N(C)C)CC(=O)N(C)[C@@H](CCC(=O)N(C)C)C(=O)N[C@@H]([C@@H](C)CC)C(=O)N(C)CC(=O)N(C)[C@H]3C/C=C\CCN(C3=O)[C@@H](Cc3ccc(C(F)(F)F)cc3)C(=O)N(C)CC(=O)N[C@@H](CCc3cc(F)c(C(F)(F)F)c(F)c3)C(=O)N2C1 [PP1122] | – | A (a compound having 10 or more and less than 20 is denoted as A) | B (a compound having 3 or more and less than 10 is denoted as B) | – | – | pKd ([1]; SPR, Single Cycle Kinetics): 10.33
CCCN1C(=O)CN(C)C(=O)[C@@H]2CCN2C(=O)[C@H]([C@@H](C)CC)NC(=O)[C@H](CC(C)C)N(C)C(=O)C[C@@H](C(=O)N(C)C)N(C)C(=O)[C@H](C2CCCC2)N(C)C(=O)C2(CCC2)NC(=O)[C@@H]2CCCN2C(=O)[C@H](CCc2ccc(C(F)(F)F)c(Cl)c2)NC(=O)CN(C)C(=O)[C@@H]1Cc1ccc(C(F)(F)F)cc1 [PP0430] ([NMeL]I[Aze][Sar][NPrPhe(4-CF3)][Sar][hPhe(3-Cl-4-CF3)]P[Ac4c][NMeGly(cPent)][NMeD]-NMe2; lactam N-11) | 9.59 | – | – | B (a compound having 3 or more and less than 10 is denoted as B) | B (a compound having 3 or more and less than 10 is denoted as B) | –
CCCN1C(=O)[C@@H]2CCN2C(=O)[C@H](C)N(C)C(=O)[C@H]([C@@H](C)CC)NC(=O)[C@H](CC(F)(F)F)N(C)C(=O)C[C@@H](C(=O)N2CCOCC2)N(C)C(=O)[C@H](C2CCCC2)N(C)C(=O)C2(CCCC2)NC(=O)[C@@H]2CC(F)(F)CN2C(=O)[C@H](CCc2ccc(C(F)(F)F)c(Cl)c2)NC(=O)CN(C)C(=O)[C@@H]1Cc1ccc(C(F)(F)F)cc1 [PP0203] ([NMeAbu(4,4,4-F3)]I[NMeA][Aze][NPrPhe(4-CF3)][Sar][hPhe(3-Cl-4-CF3)][Pro(4,4-F2)][Ac5c][NMeGly(cPent)][NMeD]-Morpholide; lactam N-11) | 10.03 | C (A compound having a KD ratio of 0.1 or more and less than 3 is denoted as C) | C (A compound having a KD ratio of 0.1 or more and less than 3 is denoted as C) | – | – | –
CCCN1C(=O)[C@@H]2CCN2C(=O)CN(C)C(=O)[C@H]([C@@H](C)CC)NC(=O)[C@H](CC(C)C)N(C)C(=O)C[C@@H](C(=O)N2CCOCC2)N(C)C(=O)[C@H](C2CCCC2)N(C)C(=O)C2(CCC2)NC(=O)[C@@H]2C[C@@H](OCC)CN2C(=O)[C@H](CCc2ccc(C(F)(F)F)c(Cl)c2)NC(=O)CN(C)C(=O)[C@@H]1Cc1ccc(C(F)(F)F)cc1 [PP0411] ([NMeL]I[Sar][Aze][NPrPhe(4-CF3)][Sar][hPhe(3-Cl-4-CF3)][Hyp](Et)[Ac4c][NMeGly(cPent)][NMeD]-Morpholide; lactam N-11) | 10.34 | – | – | C (A compound having a KD ratio of 0.1 or more and less than 3 is denoted as C) | C (A compound having a KD ratio of 0.1 or more and less than 3 is denoted as C) | –

— patent publication US20240158446A1, “CYCLIC COMPOUND HAVING SELECTIVE INHIBITORY ACTION ON KRAS OVER HRAS AND NRAS” (CHUGAI SEIYAKU KABUSHIKI KAISHA, priority 2021, published 2024)
